Here are results for five molecules from patent US11571400B2, “ACAT1 inhibitors for treating cancer” (Shanghai Institutes for Biological Sciences, Chinese …, priority 2016, dated 2023).

One series relates to CD8+ T cells. The series can be described thus: Cytokine and cytolytic granule production of CD8+ T cells stimulated with plate-bound anti-CD3/CD28. It is filed as cell-based, mouse. The conditions noted are these: pretreated with compound vs vehicle (DMSO); stimulated with 5 μg/ml plate-bound anti-CD3/CD28. As to the method:
Peripheral T cells were isolated from mouse spleen and draining lymph nodes by a CD8^+ or CD4^+ T cell negative selection kit (Stem cell). To analyse the tumour-infiltrating T cells, tumours were first digested by collagenase IV (sigma), and tumour-infiltrating leukocytes were isolated by 40-70% percoll (GE) gradient centrifugation. To measure the effector function of CD8^+ T cells, the isolated cells were first stimulated with 1 μM ionomycin and 50 ng/ml PMA for 4 hours in the presence of 5 μg/ml BFA, and then stained with PERCP-α-CD8a. Next, cells were fixed with 4% PFA and stained with FITC-α-Granzyme B, APC-α-IFNγ and PE-α-TNFα. In general, to gate the cytokine or granule producing cells, T cells without stimulation or stained with isotype control antibody were used as negative controls. This gating strategy is applicable for most of the flow cytometric analyses. To detect the MDSCs (myeloid-derived suppressor cells) in the tumour, the percoll isolated leukocyte were stained with α-CD45, α-CD11b and α-Ly6G (Gr1), the CD45^+ population was gated, after which the MDSC population (CD11b^+ Gr1^+) in CD45^+ were gated.
(§1) CD8^+ T cells were pretreated with vehicle (dimethylsulfoxide, DMSO), CP-113,818 or K604. Then the cells were stimulated with 5 μg ml^−1 plate-bound anti-CD3/CD28, and cytokine and cytolytic granule production was studied. Cytotoxicity of OT-I CTLs pretreated with CP-113,818 or K604 or vehicle was also studied.

The subject of a further series is OT-I CTLs. The series can be described thus: CD8+ T-cell (OT-I CTL) cytotoxicity against antigen-pulsed EL-4 cells, LDH release. Format: cell-based, mouse. Conditions: for cytotoxicity of CD8+ T cells: OT-I CTLs pretreated with compound vs vehicle. The procedure:
To generate mature Cytotoxic T lymphocytes (CTLs), splenocytes isolated from Acat1^CKO-OT-I mice or WT OT-I mice were stimulated with OVA257-264 (N4) for 3 days in the presence of 10 ng/ml IL-2. Cells were centrifuged and cultured in fresh medium containing 10 ng/ml IL-2 for 2 more days, after which most of the cells in the culture were CTLs. To measure CD8^+ T-cell cytotoxicity, EL-4 cells were pulsed with 2 nM antigenic peptide (N4, A2, T4, G4, R4 or Catnb) for 30 minutes. After washing EL-4 cells and CTLs three times with PBS, we mixed CTLs and antigen-pulsed EL-4 cells (1×10^5) in the killing medium (phenol free-RPMI 1640, 2% FBS), at the ratio of 1:1, 1:2 and 1:5, respectively. After 4 hours, the cytotoxic efficiency was measured by quantifying the release of endogenous lactate dehydrogenase (LDH) from EL-4 cells using a CytoTox 96 Non-Radioactive Cytotoxicity kit (Promega).
as §1
To study ACAT1 inhibitors in cancer immunotherapies in mice, melanoma-bearing mice were treated with a potent ACAT-1 inhibitor, avasimibe (Ava), or DMSO control, and tumour size and survival were studied. A combined therapy (avasimibe and anti-PD-1) or monotherapies (avasimibe or anti-PD-1) were also studied and compared in treating melanoma. In a lung cancer model, Lewis lung carcinoma-bearing mice were treated with avasimibe or DMSO control, and tumour multiplicity and survival were studied. Cytokine productions of stimulated human (h) CD8^+ T cells pretreated with avasimibe, CP-113,818, or DMSO. CTL cytotoxicity after avasimibe treatment was measured by the LDH assay. OT-I CTLs were pretreated with avasimibe or vehicle for 6 h and then incubated with EL-4 cells pulsed with OVA257-264 peptide for 4 h.
(In general: LDH leaks from cells whose membrane has failed.)

For series [1] the following is noted: cited from earlier work.
A further series deals with human CD8+ T cells. The series can be described thus: Human CD8+ T-cell cytokine production. Conditions: PBMCs pretreated 12 hours, then plate-bound α-CD3/α-CD28 for 24 hours; vs DMSO. It is filed as cell-based. As to the method: Human peripheral blood mononuclear cells (PBMCs) from healthy donators were stimulated with 5 μg/ml PHA (Sigma) for 2 days and then rested for 1 day. Cells were pretreated with vehicle (DMSO), CP113, 818 or avasimibe for 12 hours and then stimulated with plate-bound α-CD3 (5 μg/ml) and α-CD28 (5 μg/ml) antibodies for 24 hours. Intracellular staining and flow cytometry were used to assess cytokines production of CD8^+ T cells. […] A combined therapy (avasimibe and anti-PD-1) or monotherapies (avasimibe or anti-PD-1) were also studied and compared in treating melanoma. In a lung cancer model, Lewis lung carcinoma-bearing mice were treated with avasimibe or DMSO control, and tumour multiplicity and survival were studied. […] CTL cytotoxicity after avasimibe treatment was measured by the LDH assay. OT-I CTLs were pretreated with avasimibe or vehicle for 6 h and then incubated with EL-4 cells pulsed with OVA257-264 peptide for 4 h.

In another series the test system is B16F10 melanoma. The series can be described thus: Skin melanoma mouse model (B16F10), avasimibe therapy. Conditions: melanoma-bearing mice; avasimibe 15 mg/kg intraperitoneally every 2 days from Day 10, vs DMSO control. Format: in vivo. The procedure: (§2) A combined therapy (avasimibe and anti-PD-1) or monotherapies (avasimibe or anti-PD-1) were also studied and compared in treating melanoma. In a lung cancer model, Lewis lung carcinoma-bearing mice were treated with avasimibe or DMSO control, and tumour multiplicity and survival were studied. […] CTL cytotoxicity after avasimibe treatment was measured by the LDH assay. OT-I CTLs were pretreated with avasimibe or vehicle for 6 h and then incubated with EL-4 cells pulsed with OVA257-264 peptide for 4 h.

Series [2] deals with Lewis lung carcinoma (LLC). Briefly: Lewis lung carcinoma (LLC) model, avasimibe therapy. It is filed as in vivo, mouse. The conditions noted are these: avasimibe 15 mg/kg intraperitoneally every 3 days, Day 10 to Day 35, vs DMSO control. The procedure:
as §2

Consider `CCN(CC)CCO[C@H]1CC[C@@]2(C)C(=CC[C@@H]3[C@@H]2CC[C@]2(C)C(=O)CC[C@@H]32)C1` [U18666A], for which the “cytolytic granule and cytokine productions of CD8+ T cells” value in the series on CD8+ T cells is on record as “significantly decreased”.

Consider `CCCCCCCC[C@H](SCCCCCC)C(=O)Nc1c(SC)cc(C)nc1SC` [CP-113,818, (S)—N-(2,4-Bis(methylthio)-6-methylpyridin-3-yl)-2-(hexylthio)decanoic acid amide], for which the “cytotoxicity of CD8+ T cells” value with OT-I CTLs is “augmented”. Also, in the series with CD8+ T cells, the “cytolytic granule and cytokine productions of CD8+ T cells” value is listed as “augmented”.

Regarding `CC(C)c1cc(C(C)C)c(CC(=O)NS(=O)(=O)Oc2c(C(C)C)cccc2C(C)C)c(C(C)C)c1` [avasimibe, [2,6-di(propan-2-yl)phenyl] N-[2-[2,4,6-tri(propan-2-yl)phenyl]acetyl]sulfamate], the well tolerated dose in series [1] (adult human subjects, four times daily (i.e., 3000 mg/day), Kharbanda et al (2005)) was ≥ 750 mg. Also, in series [1] (clinical trials for treating atherosclerosis), the human safety profile result is “good human safety profile”. Further, the “effector function of mouse CD8+ T cells ex vivo” value in the series with OT-I CTLs (OT-I CTLs pretreated with avasimibe or vehicle for 6 h, EL-4 cells pulsed with OVA257-264 for 4 h, LDH assay) was “enhance”. Also, the “cytokine production of human CD8+ T cells” value in the series with human CD8+ T cells was “enhanced”. In addition, in the series on B16F10 melanoma, the survival time entry is listed as “prolonged” and the tumour growth entry is reported as “inhibited”. Moreover, the “antitumor effect in Lewis lung carcinoma (tumour multiplicity and survival)” value in series [2] is recorded as “good antitumor effect”.

With `CC[C@H](C)C(=O)O[C@H]1C[C@@H](C)C=C2C=C[C@H](C)[C@H](CC[C@@H]3C[C@@H](O)CC(=O)O3)[C@H]21` [Lovastatin], the “cytolytic granule and cytokine productions of CD8+ T cells” value in the series on CD8+ T cells is recorded as “significantly decreased”.

For the molecule `CSc1cc(C)nc(SC)c1NC(=O)CN1CCN(CCSc2nc3ccccc3[nH]2)CC1` [K604, 2-[4-[2-(benzimidazol-2-ylthio)ethyl]piperazin-1yl]-N-[2,4-bis(methylthio)-6-methyl-3-pyridyl]acetamide], the “cytotoxicity of CD8+ T cells” value with OT-I CTLs is “augmented”. The “cytolytic granule and cytokine productions of CD8+ T cells” value in the series on CD8+ T cells is “augmented”.
